Measured values published in US12180139B2, “Method for preparing aminoalkanoic acid derivative containing biphenyl group” (AMTIXBIO CO., LTD., priority 2019, dated 2024).

Tests used:
A. fumigatus [1] = test system: A. fumigatus
Experimental: (§1) Fungal cells were spread on YPD solid media (Sigma-Aldrich) and then aliquoted into the wells of the 96-well plates (2.5×10^3 microconidia/ ? for T. rubrum and T. mentagrophytes species or was 2.5×10^3 cfu/ ? for Candida albicans, Candida glabrata and Cryptococcus neoformans species, 195 ? /well). […] The compound-treated fungal cells were incubated in a 35° C. incubator for 48 hours (Candida species) and for 72 hours (C. neoformans and Trichophyton species), respectively.

[2] = test system: C. albicans 12-99 (Mutant); conditions: 35° C., 48 hours
Experimental: as §1

[3] = test system: C. albicans ATCC90028 (WT); conditions: 35° C., 48 hours; n = 30
Experimental: as §1

C. glabrata [4] = conditions: 35° C., 48 hours; n = 30
Experimental: as §1

C. neoformans [5] = conditions: 35° C., 72 hours; n = 10
Experimental: as §1

C. tropicalis = conditions: 35° C., 48 hours
Experimental: as §1

[6] = test system: T. mentagrophytes (KCCM60449); conditions: 35° C., 72 hours
Experimental: as §1

T. rubrum (KCCM60443) = conditions: 35° C., 72 hours
Experimental: as §1

T. rubrum (KCCM60450) = conditions: 35° C., 72 hours
Experimental: as §1

B. cereus (+) = experiment: Antibacterial MIC test (CLSI); assay type: cell-based; conditions: MHB liquid medium, 37° C., 24 hours
Experimental: (§2) The MIC test was conducted in accordance CLSI guidelines. […] As a positive control, Nofloxacin and Vancomycin were used.

B. coagulans (+) = experiment: Antibacterial MIC test (CLSI); assay type: cell-based; conditions: MHB liquid medium, 37° C., 24 hours
Experimental: as §2

B. subtilis (+) = experiment: Antibacterial MIC test (CLSI); assay type: cell-based; conditions: MHB liquid medium, 37° C., 24 hours
Experimental: as §2

E. coli (−) = experiment: Antibacterial MIC test (CLSI); assay type: cell-based; conditions: MHB liquid medium, 37° C., 24 hours
Experimental: as §2

L. monocytogenes (+) = experiment: Antibacterial MIC test (CLSI); assay type: cell-based; conditions: MHB liquid medium, 37° C., 24 hours
Experimental: as §2

M. luteus (+) = experiment: Antibacterial MIC test (CLSI); assay type: cell-based; conditions: MHB liquid medium, 37° C., 24 hours
Experimental: as §2

P. acnes (+) = experiment: Antibacterial MIC test (CLSI); assay type: cell-based; conditions: MHB liquid medium, 37° C., 24 hours
Experimental: as §2

S. aureus enterica (−) = experiment: Antibacterial MIC test (CLSI); assay type: cell-based; conditions: MHB liquid medium, 37° C., 24 hours
Experimental: as §2

S. aureus (+) = conditions: MHB liquid medium, 37° C., 24 hours
S. epidermidis (+) = conditions: MHB liquid medium, 37° C., 24 hours
MRSA = experiment: Antibacterial MIC test (CLSI); assay type: cell-based, Methicillin-resistant Staphylococcus aureus; conditions: MHB liquid medium, 37° C., 24 hours
Experimental: as §2

C. neoformans [7] = conditions: RPMI1640 broth, 35° C., 72 hours, visual reading; expressed as a range value
C. albicans = conditions: RPMI1640 broth, 35° C., 48 hours, visual reading; expressed as a range value
Experimental: (§3) An in vitro antifungal susceptibility test was performed in accordance with the US Clinical and Laboratory Standards Institute (CLSI) guidelines to measure the degree of antifungal activity of the compounds synthesized in the Preparation Examples against opportunistic pathogenic fungi. […] The MIC value (μg/ ? ) is expressed as a range value. Specifically, Candida species and Cryptococcus neoformans were incubated in a Sabouraud dextrose agar (SDA) (Sigma-Aldrich) solid medium for 24 and 48 hours, respectively to obtain single colonies. The obtained single colonies were suspended in 0.85% physiological saline to prepare fungal cell suspension (1 to 5×10^6 cells/ ? ). Fungal cells 2000-fold diluted in RPMI1640 broth (Sigma-Aldrich) were seeded on 96-well plates (5×10^2 to 2.5×10^3 cells/ ? , 195 ? /well). Serial two-fold dilutions (128, 64, 32, 16, 8, 4, 2, 1, and 0.5 μg/ ? ) of compounds were prepared by diluting the compounds synthesized according to the above preparation examples. Then, 5 ? from each dilution was added to the well of the 96-well plate containing fungal cell suspension to give a final suspension of 200 ? per well. […] As a positive control, amphotericin B (AMB), which is highly toxic to the human body but is known as a representative antifungal agent, was used.

C. glabrata [8] = conditions: RPMI1640 broth, 35° C., 48 hours, visual reading; expressed as a range value
A. fumigatus [9] = conditions: visual reading; expressed as a range value
Experimental: as §3

Candida albicans = conditions: 50 or 100 μg/mL for 30 minutes; versus Efinaconazole, Tavaborole, Terbinafine, Ciclopirox
Experimental: To evaluate fast-acting effects of Compound 74, the growth of Candida albicans was studied by treating Candida albicans with Compound 74 or commercially available drug of Efinaconazole, Tavaborole, Terbinafine, or Ciclopirox at the same concentration for the same period of time. Specifically, Candida albicans were prepared at a concentration of 2.5×10^3 cfu/ ? and aliquoted at 195 ? /well into 96-well plates. Subsequently, Candida albicans cells in 96-well plate were treated with Compound 74 or each of the commercially available comparative drugs (50 μg/ ? or 100 μg/ ? ) for 30 minutes, respectively. Next, Compound 74 treated fungal cells were seeded on YPD media (Sigma-Aldrich), and the number of single colonies grown was counted.

T. rubrum = conditions: 0.5- to 16-fold MIC, 0 to 120 hours; versus Efinaconazole, Amorolfine, Terbinafine, Ciclopirox, Amphotericin B
Experimental: Specifically, T. rubrum cells (6×10^3 cfu/ ? ) were prepared and aliquoted at 195 ? /well into 96-well plates.

Candida albicans biofilm = conditions: 4, 8, 16 and 32 μg/mL, 24 hours after treatment; versus Caspofungin, Amphotericin B, Efinaconazole
interleukin 6 (IL-6) = conditions: RAW264.7 cells, compound 8 μg/mL 1 hour, then LPS 1 μg/mL 24 hours; relative to LPS without compound
Experimental: The anti-inflammatory effects of the compounds of the present invention were evaluated using RAW264.7 cells which were stimulated to secrete interleukin 6 (IL-6). Specifically, RAW264.7 cells (obtained from Korean Cell Line Bank), mouse macrophages, were inoculated into a 12-well plate at 5×10^5 cells/well and incubated at 37° C. for 16 to 24 hours. The compounds of the present invention were added to the cell culture medium containing RAW264.7 cells incubated as above at a final concentration of 0 or 8 μg/ ? , and then incubated at 37° C. for 1 hour. Next, lipopolysaccharide (LPS, Sigma-Aldrich, USA) was further added to the medium at a final concentration of 1 μg/ ? , and the medium was incubated at 37° C. for 24 hours to induce IL-6 expression. Thereafter, IL-6 levels produced by the RAW264.7 cells were measured using an ELISA kit (Komabiotech Inc. Korea) according to the manufacturer's instructions. In Table 9, IL6 levels were expressed as a relative percentage (%) between LPS-induced IL6 levels after the treatment with the compound of the present invention and LPS-induced IL6 levels without the treatment of the compound of the present invention.

| SMILES | MIC B. cereus (+) (B. cereus (+)) [µg/mL] | MIC B. coagulans (+) (B. coagulans (+)) [µg/mL] | MIC B. subtilis (+) (B. subtilis (+)) [µg/mL] | MIC E. coli (−) (E. coli (−)) [µg/mL] | MIC L. monocytogenes (+) (L. monocytogenes (+)) [µg/mL] | MIC M. luteus (+) (M. luteus (+)) [µg/mL] | MIC P. acnes (+) (P. acnes (+)) [µg/mL] | MIC S. aureus enterica (−) (S. aureus enterica (−)) [µg/mL] | MIC S. aureus (+) (S. aureus (+)) [µg/mL] | MIC S. epidermidis (+) (S. epidermidis (+)) [µg/mL] | MIC MRSA (MRSA) [µg/mL] | MIC (μg/mL) C. neoformans (C. neoformans [7]) | MIC (μg/mL) C. albicans (C. albicans) | MIC (μg/mL) C. glabrata (C. glabrata [8]) | MIC (μg/mL) A. fumigatus (A. fumigatus [9]) | Relative IL-6 levels (%) (interleukin 6 (IL-6)) | other results |
| --- | --- | --- | --- | --- | --- | --- | --- | --- | --- | --- | --- | --- | --- | --- | --- | --- | --- |
| CCCC(N)C(=O)NCCc1ccc(-c2ccc(Cl)c(Cl)c2)cc1.Cl (racemic) [Compound 74, (R)/(S)-2-amino-N-(2-(3′,4′-dichloro-[1,1′-biphenyl]-4-yl)ethyl)pentanamide hydrochloride] | 16 | 2 | 8 | 32 | 8 | 8 | 8 | >32 | 8 | 8 | 8 | 0.5~4 μg/mL | 0.5~4 μg/mL | 0.5~4 μg/mL | 0.5~4 μg/mL |  | MIC A. fumigatus (A. fumigatus [1]): 2~8 μg/mL; MIC C. albicans 12-99 (Mutant) [2]: 2~8 μg/mL; MIC C. albicans ATCC90028 (WT) [3]: 2~4 μg/mL; MIC C. glabrata (C. glabrata [4]): 2~4 μg/mL; MIC C. neoformans (C. neoformans [5]): 2~4 μg/mL; MIC C. tropicalis (C. tropicalis): 2~4 μg/mL; MIC T. mentagrophytes (KCCM60449) [6]: 2~8 μg/mL; MIC T. rubrum (KCCM60443) (T. rubrum (KCCM60443)): 1~4 μg/mL; MIC T. rubrum (KCCM60450) (T. rubrum (KCCM60450)): 2~4 μg/mL; fast-acting effects (number of single colonies grown, FIG. 1) (Candida albicans): excellent fast-acting effects; fungicidal effects (number of single colonies grown, FIG. 2) (T. rubrum): exhibited fungicidal effects at the MIC concentration; biofilm disruption (growth of Candida albicans, FIG. 3) (Candida albicans biofilm): remarkably excellent growth inhibitory effects on Candida albicans through biofilm disruption |
| CCC(N)C(=O)NCCc1ccc(-c2ccc(C(F)(F)F)cc2)cc1.Cl (racemic) [Compound 76, (R)/(S)-2-amino-N-(2-(4′-(trifluoromethyl)-[1,1′-biphenyl]-4-yl)ethyl)butanamide hydrochloride] | 64 | <4 | 16 | 16 | 16 | 16 | 16 | 32 | 32 | 16 | 32 | 8~32 μg/mL | 16~64 μg/mL | 8~32 μg/mL | 8~32 μg/mL | 9.58 |  |
| CCCC(NC)C(=O)NCCc1ccc(-c2ccc(C(F)(F)F)cc2)cc1.Cl (racemic) [Compound 87, (R)/(S)-2-(methylamino)-N-(2-(4′-(trifluoromethyl)-[1,1′-biphenyl]-4-yl)ethyl)pentanamide hydrochloride] |  |  |  |  |  |  |  |  |  |  |  | 4~16 μg/mL | 4~16 μg/mL | 4~16 μg/mL | 4~16 μg/mL | 24 |  |
